Structures can show the parent of a compound that is named as a salt.
Key:
[1] = tested on: influx of neutrophils to the lung in LPS-challenged rats; assay: Rat LPS neutrophilia model; type: in vivo; settings: LPS aerosol, lavage 4 hours later, in at least one of the range of conditions tested, significance p<0.05
Experimental: The effect of compounds on the influx of neutrophils to the lung in LPS-challenged rats is evaluated as follows. The test compound is suspended in one of the following solutions: 0.5% tween 80/PBS, 0.5% tween 80/saline, 10% EtOH/saline (with pH adjusted to 2.0, or 8.0 with HCl, or unadjusted), Saline (pH 2.0, 6.5 or 8.0, 0.5% Tragacanth, 1% DMSO/20% Encapsin/Saline, or acidified 5% Tragacanth. The suspension process may be aided by the use of a glass homogenizer. For intratracheal administration, the animals are anesthetized with inhaled isoflurane and placed in a supine position, the trachea is intubated with a steel gavage needle (1.5 inch, 22 gauge, small ball) or a Penn-Century Microsprayer Aerosolizer (model IA-LB) and 200 ul of dosing solution is delivered. The animals are visually monitored during the recovery process, which typically occurs within two minutes.
Rats treated with compound or vehicle (15 min-24 hours pretreatment) are exposed to an LPS aerosol (100 ug/ml) for 15 min. Four hours later the rats are euthanized with pentobarbital (100 mg/kg, i.p.) and the airways are lavaged with 5 washes of 5 ml of phosphate buffered saline. The harvested cells are stained (Diffquick) and counted to determine total and differential cell data. In a typical study, macrophages represent 40-70% of the total cells, and polymorphonuclear cells 30-60% of the total cells. Inhibition of neutrophil levels relative to no compound controls is calculated based on the differential counts.
The assay has varying conditions, such as concentration, pretreat time, form of the compound (crystalline, amorphous, salts, micronised), and a wet or dry application of the compound.
The data is obtained as % inhibition using a particular concentration and pretreat time.

Recombinant human p38α = biological target: T1, Recombinant human p38α (Homo sapiens, UniProt Q16539); assay: Fluorescence anisotropy kinase binding assay (standard or low volume); settings: 12 nM p38α, 5 nM fluorescent ligand
T1 construct: GST; made in house
T1 sequence (Q16539 whole entry): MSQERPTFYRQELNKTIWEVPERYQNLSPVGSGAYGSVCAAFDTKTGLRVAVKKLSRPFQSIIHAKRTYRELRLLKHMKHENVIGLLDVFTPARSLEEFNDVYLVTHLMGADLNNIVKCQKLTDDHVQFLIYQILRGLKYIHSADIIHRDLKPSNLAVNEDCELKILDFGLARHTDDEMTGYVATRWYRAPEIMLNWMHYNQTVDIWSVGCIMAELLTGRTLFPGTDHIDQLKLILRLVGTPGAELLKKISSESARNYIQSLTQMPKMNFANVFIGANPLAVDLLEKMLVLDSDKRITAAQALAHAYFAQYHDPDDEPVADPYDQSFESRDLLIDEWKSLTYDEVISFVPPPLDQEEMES
Text: (§1) The concentration of kinase enzyme should preferably be >2×Kf. The concentration of fluorescent ligand required will depend on the instrumentation used, and the fluorescent and physicochemical properties. The concentration used must be lower than the concentration of kinase enzyme, and preferably less than half the kinase enzyme concentration.
The fluorescent ligand is the following compound:
[drawing 329] • which is derived from 5-[2-(4-aminomethylphenyl)-5-pyridin-4-yl-1H-imidazol-4-yl]-2-chlorophenol and rhodamine green. Recombinant human p38α was expressed as a GST-tagged protein. To activate this protein, 3.5 μM unactivated p38α was incubated in 50 mM Tris-HCl pH 7.5, 0.1 mM EGTA, 0.1% 2-mercaptoethanol, 0.1 mM sodium vanadate, 10 mM MgAc, 0.1 mM ATP with 200 nM MBP-MKK6 DD at 30 degrees for 30 mins. Following activation p38α was re-purified and the activity assessed using a standard filter-binding assay. Protocol: All components are dissolved in buffer of composition 62.5 mM HEPES, pH 7.5, 1.25 mM CHAPS, 1 mM DTT, 12.5 mM MgCl2 with final concentrations of 12 nM p38α and 5 nM fluorescent ligand. 30 μl of this reaction mixture is added to wells containing 1 μl of various concentrations of test compound (0.28 nM-16.6 μM final) or DMSO vehicle (3% final) in NUNC 384 well black microtitre plate and equilibrated for 30-60 mins at room temperature. Fluorescence anisotropy is read in Molecular Devices Acquest (excitation 485 nm/emission 535 nm). Definitions: Ki=dissociation constant for inhibitor binding • Kf=dissociation constant for fluorescent ligand binding
as §1, with “2×Kf.” for “>2×Kf.”, “concentration. The fluorescent ligand is the following compound:” for “concentration.”
which is derived from 5-[2-(4-aminomethylphenyl)-5-pyridin-4-yl-1H-imidazol-4-yl]-2-chlorophenol and rhodamine green. Recombinant human p38α was expressed as a GST-tagged protein. To activate this protein, 3.5 μM unactivated p38α was incubated in 50 mM Tris-HCl pH 7.5, 0.1 mM EGTA, 0.1% 2-mercaptoethanol, 0.1 mM sodium vanadate, 10 mM MgAc, 0.1 mM ATP with 200 nM MBP-MKK6 DD at 30 degrees for 30 mins. Following activation p38α was re-purified and the activity assessed using a standard filter-binding assay. Protocol: All components are dissolved in buffer of composition 62.5 mM HEPES, pH 7.5, 1.25 mM CHAPS, 1 mM DTT, 12.5 mM MgCl2 with final concentrations of 12 nM p38α and 5 nM fluorescent ligand. […] of this reaction mixture is added to wells containing 0.1 μl of various concentrations of test compound (0.02 nM-25 μM final) or DMSO vehicle (1.7% final) in Greiner low volume 384 well black microtitre plate and equilibrated for 30-60 mins at room temperature. Fluorescence anisotropy is read in Molecular Devices Acquest (excitation 485 nm/emission 535 nm). Definitions: Ki dissociation constant for inhibitor binding • Kf=dissociation constant for fluorescent ligand binding It is noted that there are two assay formats shown above for the Fluorescence anisotropy kinase binding assay. The only difference between these two assays is the volume used and the plate type. […] The results described herein may have been performed in either assay format and are not differentiated as to which.

[2] = tested on: IL-8 production by human neutrophils; assay: TNF-stimulated IL-8 production from human neutrophils; type: cell-based; settings: Neutrophil, bound, not more than 50% inhibition at 100 nM, read-out: IC50

## CCCNC(=O)c1ccc(C)c(-c2nc(NCCCN(CC)CC)nc3c2CNC(=O)N3c2c(F)cccc2F)c1 [29(c), 3-[2-{[3-(diethylamino)propyl]amino}-8-(2,6-difluorophenyl)-7-oxo-5,6,7,8-tetrahydropyrimido[4,5-d]pyrimidin-4-yl]-4-methyl-N-propylbenzamide]
[1]
  inhibition of neutrophilia: statistically significant inhibition of neutrophilia
Recombinant human p38α
  active in the assay (pIC50, p38α binding): active

## Cc1c(F)cc(C(=O)N(C)C)cc1-c1nc(NCCN(C)C)nc2c1CNC(=O)N2c1c(F)cccc1F [Example 113, 3-(8-(2,6-difluorophenyl)-2-{[2-(dimethylamino)ethyl]amino}-7-oxo-5,6,7,8-tetrahydropyrimido[4,5-d]pyrimidin-4-yl)-5-fluoro-N,N,4-trimethylbenzamide]
[2]
  IC50: > 100 nM

## CCc1ccc(C(N)=O)cc1-c1nc(NCCN(C)C)nc2c1CNC(=O)N2c1c(F)cccc1F [Example 146, 3-(8-(2,6-difluorophenyl)-2-{[2-(dimethylamino)ethyl]amino}-7-oxo-5,6,7,8-tetrahydropyrimido[4,5-d]pyrimidin-4-yl)-4-ethylbenzamide]
[2]
  IC50: > 100 nM

## Cc1ccc(C(=O)NC(C)C)cc1-c1nc(NCCCNC(C)C)nc2c1CNC(=O)N2c1c(F)cccc1F [Example 49, 3-[8-(2,6-difluorophenyl)-2-({3-[(1-methylethyl)amino]propyl}amino)-7-oxo-5,6,7,8-tetrahydropyrimido[4,5-d]pyrimidin-4-yl]-4-methyl-N-(1-methylethyl)benzamide]
[2]
  IC50: > 100 nM

## Cc1ccc(C(=O)NC(C)C)cc1-c1nc(N(C)CCCN(C)C)nc2c1CNC(=O)N2c1c(F)cccc1F [34(d), 3-{8-(2,6-difluorophenyl)-2-[[3-(dimethylamino)propyl](methyl)amino]-7-oxo-5,6,7,8-tetrahydropyrimido[4,5-d]pyrimidin-4-yl}-4-methyl-N-(1-methylethyl)benzamide]
[1]
  inhibition of neutrophilia: statistically nonsignificant inhibition of neutrophilia
Recombinant human p38α
  active in the assay (pIC50, p38α binding): active

## Cc1ccc(C(=O)Nc2ccc(F)cc2)cc1-c1nc(N2CCC(N3CCCC3)CC2)nc2c1CNC(=O)N2c1c(F)cccc1F [86(c), 3-{8-(2,6-difluorophenyl)-7-oxo-2-[4-(1-pyrrolidinyl)-1-piperidinyl]-5,6,7,8-tetrahydropyrimido[4,5-d]pyrimidin-4-yl}-N-(4-fluorophenyl)-4-methylbenzamide]
[1]
  inhibition of neutrophilia: statistically nonsignificant inhibition of neutrophilia
Recombinant human p38α
  active in the assay (pIC50, p38α binding): active

## CSc1nc(-c2cc(NC(=O)c3ccsc3)ccc2C)c2c(n1)N(c1c(F)cccc1F)C(=O)NC2 [7(c), N-{3-[8-(2,6-Difluorophenyl)-2-(methylthio)-7-oxo-5,6,7,8-tetrahydropyrimido[4,5-d]pyrimidin-4-yl]-4-methylphenyl}-3-thiophenecarboxamide]
[1]
  inhibition of neutrophilia: inactive
Recombinant human p38α
  active in the assay (pIC50, p38α binding): active

## CSc1nc(-c2cc(NC(=O)c3ccc(C)c(F)c3)ccc2C)c2c(n1)N(c1c(F)cccc1F)C(=O)NC2 [23(c), N-{3-[8-(2,6-difluorophenyl)-2-(methylthio)-7-oxo-5,6,7,8-tetrahydropyrimido[4,5-d]pyrimidin-4-yl]-4-methylphenyl}-3-fluoro-4-methylbenzamide]
[1]
  inhibition of neutrophilia: inactive
Recombinant human p38α
  active in the assay (pIC50, p38α binding): active

## Cc1ccc(C(=O)Nc2ccc(F)cc2)cc1-c1nc(NCCN(C)C)nc2c1CNC(=O)N2c1c(F)cccc1F [8(c), 3-(8-(2,6-difluorophenyl)-2-{[2-(dimethylamino)ethyl]amino}-7-oxo-5,6,7,8-tetrahydropyrimido[4,5-d]-pyrimidin-4-yl)-N-(4-fluorophenyl)-4-methylbenzamide]
[1]
  inhibition of neutrophilia: statistically significant inhibition of neutrophilia
Recombinant human p38α
  active in the assay (pIC50, p38α binding): active

## Cc1ccc(C(=O)Nc2ccc(F)cc2)cc1-c1nc(N2CCC(N3CCCCC3)CC2)nc2c1CNC(=O)N2c1c(F)cccc1F [87(b), 3-[2-(1,4′-bipiperidin-1′-yl)-8-(2,6-difluorophenyl)-7-oxo-5,6,7,8-tetrahydropyrimido[4,5-d]pyrimidin-4-yl]-N-(4-fluorophenyl)-4-methylbenzamide]
[1]
  inhibition of neutrophilia: statistically nonsignificant inhibition of neutrophilia
Recombinant human p38α
  active in the assay (pIC50, p38α binding): active

## Cc1ccc(C(=O)Nc2nccs2)cc1-c1nc(NCCN(C)C)nc2c1CNC(=O)N2c1c(F)cccc1F [118(c), 3-(8-(2,6-difluorophenyl)-2-{[2-(dimethylamino)ethyl]amino}-7-oxo-5,6,7,8-tetrahydropyrimido[4,5-d]pyrimidin-4-yl)-4-methyl-N-1,3-thiazol-2-ylbenzamide]
[1]
  inhibition of neutrophilia: statistically significant inhibition of neutrophilia
Recombinant human p38α
  active in the assay (pIC50, p38α binding): active

## Cc1ccc(C(=O)Nc2ccccc2)cc1-c1nc(NCCN(C)C)nc2c1CNC(=O)N2c1c(F)cccc1F [Example 137, 3-(8-(2,6-difluorophenyl)-2-{[2-(dimethylamino)ethyl]amino}-7-oxo-5,6,7,8-tetrahydropyrimido[4,5-d]pyrimidin-4-yl)-4-methyl-N-phenylbenzamide]
[1]
  inhibition of neutrophilia: statistically significant inhibition of neutrophilia

## CCc1ccc(C(=O)Nc2nccs2)cc1-c1nc(NCCN(C)C)nc2c1CNC(=O)N2c1c(F)cccc1F [Example 144, 3-(8-(2,6-difluorophenyl)-2-{[2-(dimethylamino)ethyl]amino}-7-oxo-5,6,7,8-tetrahydropyrimido[4,5-d]pyrimidin-4-yl)-4-ethyl-N-1,3-thiazol-2-ylbenzamide trifluoroacetate]
[1]
  inhibition of neutrophilia: statistically significant inhibition of neutrophilia

## Cc1ccc(C(=O)Nc2ccc(F)cc2)cc1-c1nc(N(C)CCN(C)C)nc2c1CNC(=O)N2c1c(F)cccc1F [Example 32, 3-{8-(2,6-difluorophenyl)-2-[[2-(dimethylamino)ethyl](methyl)amino]-7-oxo-5,6,7,8-tetrahydropyrimido[4,5-d]pyrimidin-4-yl}-N-(4-fluorophenyl)-4-methylbenzamide]
[1]
  inhibition of neutrophilia: statistically nonsignificant inhibition of neutrophilia
Recombinant human p38α
  active in the assay (pIC50, p38α binding): active

Source: US20090239846A1, “Novel Compounds” (Glaxo Group Limited, priority 2005, published 2009)
